Reference: US20150105252A1, “SUBSTITUTED PYRAZOLES AS HERBICIDES” (E I DU PONT DE NEMOURS AND COMPANY, priority 2013, published 2015)

Assays:
[1] = tested on: leafy spurge; assay: Test E preemergence; type: in vivo, Euphorbia esula; settings: 21 days, scale 0 to 100
Source text: (§1) Seeds of plant species selected from bermudagrass (Cynodon dactylon), Surinam grass (Brachiaria decumbens), crabgrass, large (large crabgrass, Digitaria sanguinalis), crabgrass, naked (naked crabgrass, Digitaria nuda), foxtail, green (green foxtail, Setaria viridis), johnsongrass (Sorghum halepense), kochia (Kochia scoparia), morningglory (pitted morningglory, Ipomoea lacunosa), nutsedge, purple (purple nutsedge, Cyperus rotundus), ragweed (common ragweed, Ambrosia elation), mustard, black (black mustard, Brassica nigra), guineagrass (Panicum maximum), dallisgrass (Paspalum dilatatum), barnyardgrass (Echinochloa crus-galli), sandbur (southern sandbur, Cenchrus echinatus), sowthistle (common sowthistle, Sonchus oleraceous), ryegrass, Italian (Italian ryegrass, Lolium multiflorum), signalgrass (broadleaf signalgrass, Brachiaria platyphylla), dayflower, VA (Virginia (VA) dayflower, Commelina virginica), bluegrass (annual bluegrass, Poa annua), quackgrass (Elytrigia repens), mallow (common mallow, Malva sylvestris), buckwheat, wild (wild buckwheat, Polygonum convolvulus), leafy spurge (Euphorbia esula), common chickweed (Stellaria media), wild poinsettia (Euphorbia heterophylla), pigweed, palmer (palmer pigweed, Amaranthus palmeri), and pigweed (redroot pigweed, Amaranthus retroflexus) were planted into a blend of loam soil and sand and treated preemergence with test chemicals formulated in a non-phytotoxic solvent mixture which included a surfactant.
(§2) Treated plants and controls were maintained in a greenhouse for 21 days, after which time all species were compared to controls and visually evaluated. Plant response ratings, summarized in Table E, are based on a scale of 0 to 100 where 0 is no effect and 100 is complete control. A dash (-) response means no test result.

[2] = tested on: corn; assay: Test F postemergence; type: in vivo, Zea mays; settings: scale 0 to 100
Outline: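 Plant response is scored by eye relative to controls on a 0 to 100 scale, where 100 means complete control. Preemergence applications were made to seeded silt loam; postemergence ones to seedlings 2 to 18 cm high. Greenhouse holding time was 14 to 21 days.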

[3] = tested on: pigweed, palmer; assay: Test F postemergence; type: in vivo, Amaranthus palmeri; settings: scale 0 to 100
Source text: (§3) Seeds of plant species selected from corn (Zea mays), soybean (Glycine max), velvetleaf (Abutilon theophrasti), lambsquarters (Chenopodium album), wild poinsettia (Euphorbia heterophylla), pigweed, palmer (palmer pigweed, Amaranthus palmeri), common waterhemp (Amaranthus rudis), surinam grass (Brachiaria decumbens), large crabgrass (Digitaria sanguinalis), crabgrass, Brazil (Brazilian crabgrass, Digitaria horizontalis), fall panicum (Panicum dichotomiflorum), giant foxtail (Setaria faberii), green foxtail (Setaria viridis), goosegrass (Eleusine indica), johnsongrass (Sorghum halepense), common ragweed (Ambrosia elation), barnyardgrass (Echinochloa crus-galli), southern sandbur (Cenchrus echinatus), arrowleaf sida (Sida rhombifolia), Italian ryegrass (Lolium multiflorum), dayflower, VA (Virginia (VA) dayflower, Commelina virginica), field bindweed (Convolvulus arvensis), cocklebur (common cocklebur, Xanthium strumarium), morningglory (Ipomoea coccinea), nightshade (eastern black nightshade, Solanum ptycanthum), kochia (Kochia scoparia), yellow nutsedge (Cyperus esculentus), and hairy beggarticks (Bidens pilosa), were planted into a silt loam soil and treated preemergence with test chemicals formulated in a non-phytotoxic solvent mixture which included a surfactant.
(§4) At the same time, plants from these crop and weed species and also horseweed (Canada horseweed, Conyza canadensis), smartweed (ladysthumb smartweed, Polygonum persicaria), waterhemp_RES1, (ALS & Triazine resistant common waterhemp, Amaranthus rudis), and waterhemp_RES2, (ALS & HPPD resistant common waterhemp, Amaranthus rudis) were treated with postemergence applications of test chemicals formulated in the same manner. Plants ranged in height from 2 to 18 cm for postemergence treatments (1- to 4-leaf stage). Treated plants and controls were maintained in a greenhouse for 14 to 21 days, after which time all species were compared to controls and visually evaluated. Plant response ratings, summarized in Table F, are based on a scale of 0 to 100 where 0 is no effect and 100 is complete control. A dash (-) response means no test result.

[4] = tested on: southern sandbur; assay: Test F postemergence; type: in vivo, Cenchrus echinatus; settings: scale 0 to 100
Source text: as §3, §4

[5] = tested on: barnyardgrass; assay: Test F postemergence; type: in vivo, Echinochloa crus-galli; settings: scale 0 to 100
Source text: as §3, §4

[6] = tested on: sandbur; assay: Test E preemergence; type: in vivo, Cenchrus echinatus; settings: 21 days, scale 0 to 100
Source text: as §1, §2

[7] = tested on: mustard, black; assay: Test E preemergence; type: in vivo, Brassica nigra; settings: 21 days, scale 0 to 100
Source text: as §1, §2

CCCc1cc(C(=O)NCC(F)(F)F)nn1Cc1ccnc(C(F)(F)F)c1 [Compound 105]
Plant response rating, Leafy Spurge ([1]; 16 g ai/ha): 100
Plant response rating, Leafy Spurge ([1]; 31 g ai/ha): 100
Plant response rating, Leafy Spurge ([1]; 62 g ai/ha): 100
Plant response rating, Leafy Spurge ([1]; 125 g ai/ha): 100
Plant response rating, Leafy Spurge ([1]; 250 g ai/ha): 100
Plant response rating, Corn ([2]; Postemergence, 31 g ai/ha): 10
Plant response rating, Corn ([2]; Postemergence, 125 g ai/ha): 40
Plant response rating, Corn ([2]; Postemergence, 250 g ai/ha): 80
Plant response rating, Corn ([2]; postemergence, 62 g ai/ha): 30
Plant response rating, Pigweed, Palmer ([3]; Postemergence, 31 g ai/ha): 30
Plant response rating, Pigweed, Palmer ([3]; Postemergence, 125 g ai/ha): 60
Plant response rating, Pigweed, Palmer ([3]; Postemergence, 250 g ai/ha): 75
Plant response rating, Pigweed, Palmer ([3]; postemergence, 62 g ai/ha): 25
Plant response rating, Pigweed, Palmer ([3]; postemergence, 500 g ai/ha): 80
Plant response rating, Southern Sandbur ([4]; Postemergence, 31 g ai/ha): 0
Plant response rating, Southern Sandbur ([4]; Postemergence, 125 g ai/ha): 30
Plant response rating, Southern Sandbur ([4]; Postemergence, 250 g ai/ha): 70
Plant response rating, Southern Sandbur ([4]; postemergence, 62 g ai/ha): 10
Plant response rating, Southern Sandbur ([4]; postemergence, 500 g ai/ha): 90
Plant response rating, Barnyardgrass ([5]; Postemergence, 31 g ai/ha): 10
Plant response rating, Barnyardgrass ([5]; Postemergence, 125 g ai/ha): 15
Plant response rating, Barnyardgrass ([5]; Postemergence, 250 g ai/ha): 60
Plant response rating, Barnyardgrass ([5]; postemergence, 62 g ai/ha): 5
Plant response rating, Barnyardgrass ([5]; postemergence, 500 g ai/ha): 90
Plant response rating, Sandbur ([6]; 16 g ai/ha): 5
Plant response rating, Sandbur ([6]; 31 g ai/ha): 50
Plant response rating, Sandbur ([6]; 62 g ai/ha): 70
Plant response rating, Sandbur ([6]; 125 g ai/ha): 95
Plant response rating, Sandbur ([6]; 250 g ai/ha): 98
Plant response rating, Mustard, Black ([7]; 16 g ai/ha): 100
Plant response rating, Mustard, Black ([7]; 31 g ai/ha): 100
Plant response rating, Mustard, Black ([7]; 62 g ai/ha): 100
Plant response rating, Mustard, Black ([7]; 125 g ai/ha): 100
Plant response rating, Mustard, Black ([7]; 250 g ai/ha): 100
